Experimental data reported in patent US11897881B1, “Substituted pyrido[3,4-b]indole-3-carboxylic acids as CK2 inhibitors” (KING FAISAL UNIVERSITY, priority 2023, dated 2024).

Experiments:
[1] = target: T1, recombinant human CK2 (RRββ-holoenzyme) (Homo sapiens, UniProt P68400); assay: CK2 Kinase Assay (33P-ATP, filter plate); format: biochemical; conditions: final ATP concentration 15 μM, 10 min at 30° C., eight concentrations; read-out: protein kinase CK2 IC50
T1 construct: purchased Millipore
Procedure: CK2 Kinase Assay was conducted using the protocol as described in Pierre F. et al; J. Med. Chem. 2011, 54, 635-654. The tested compounds in aqueous solution were added at a volume of 10 μL to a reaction mixture comprising 10 μL of assay dilution buffer (ADB; 20 mM MOPS, pH 7.2, 25 mM β-glycerol phosphate, 5 mM EGTA, 1 mM sodium orthovanadate, and 1 mM dithiothreitol), 10 μL of substrate peptide (RRRDDDSDDD, dissolved in ADB at a concentration of 1 mM), 10 μL of recombinant human CK2 (RRββ-holoenzyme, 25 ng dissolved in ADB; Millipore). Reactions were initiated by the addition of 10 μL of ATP solution (90% 75 mMMgCl2, 75 μM ATP (final ATP concentration:15 μM) dissolved in ADB; 10% [γ-33P] ATP (stock 1 mCi/100 μL; 3000 Ci/mmol (Perkin-Elmer) and maintained for 10 min at 30° C. The reactions were quenched with 100 μL of 0.75% phosphoric acid and then transferred to and filtered through a phosphor cellulose filter plate (Millipore). After washing each well five times with 0.75% phosphoric acid, the plate was dried under vacuum for 5 min and, following the addition of 15 μL of scintillation fluid to each well, the residual radioactivity was measured using a Wallac luminescence counter. The IC50 values were derived from eight concentrations of test inhibitors.

H1299 (lung) = assay: In vitro cytotoxic activity assay (MTT), H1299; format: cell-based; conditions: Homo sapiens, NCI-H1299; H1299 (lung) cells, exposed for 96 hours; read-out: IC50, 50% inhibition of cell proliferation
Procedure: (§1) Compounds 1-15 were screened for their in vitro cytotoxic activity utilizing a 3-(4,5-dimethyl-thiazol-2-yl)-2,5-diphenyltetrazolium bromide (MTT) assay against selected cancer human cell lines consisting of PC3 (prostate), HCT116 (colon), A375 (melanoma), H1299 (lung), MIAPaCa-2 (pancreas), HL60 (leukemia), MCF7 (breast), MDA-MB-231 (breast) (T. Mosmann, J. Immunol. Meth., 1983, 65, 55-63). The cells were cultured at 37° C. in RMPI1640 medium supplemented with 10% fetal bovine serum, 50 IU/mL penicillin, and 50 μg/mL streptomycin in a 5% CO2 incubator. All cells were sub-cultured 3 times/week by trypsinisation. Viable cells were seeded and allowed to adhere for 12 h before a test drug was added in 96-well plates at an initial density of 1.0×10^5 cells/mL. Tumour cell lines were separately exposed to various concentrations of the tested compounds followed by incubation at a temperature of 37° C. during 96 h inside a medium of fresh RMPI 1640. Cells were subsequently incubated at 37° C. using MTT at 0.5 mg/mL during 4 h. After removal of supernatant, formazan crystals were dissolved in isopropanol and the optical density was measured at 570 nm. CX-4945 was used as a positive control.

HCT116 (colon) = assay: In vitro cytotoxic activity assay (MTT), HCT116; format: cell-based; conditions: Homo sapiens, HCT-116; HCT116 (colon) cells, exposed for 96 hours; read-out: IC50, 50% inhibition of cell proliferation
Procedure: as §1

MIAPaCa-2 (pancreas) = assay: In vitro cytotoxic activity assay (MTT), MIAPaCa-2; format: cell-based; conditions: Homo sapiens, MIA PaCa-2; MIAPaCa-2 (pancreas) cells, exposed for 96 hours; read-out: IC50, 50% inhibition of cell proliferation
Procedure: as §1

MCF7 (breast) = assay: In vitro cytotoxic activity assay (MTT), MCF7; format: cell-based; conditions: Homo sapiens; MCF7 (breast) cells, exposed for 96 hours; read-out: IC50, 50% inhibition of cell proliferation
Procedure: as §1

PC3 (prostate) = assay: In vitro cytotoxic activity assay (MTT), PC3; format: cell-based; conditions: Homo sapiens, Prostate cell; PC3 (prostate) cells, exposed for 96 hours; read-out: IC50, 50% inhibition of cell proliferation
Procedure: as §1

MDA-MB-231 (breast) = assay: In vitro cytotoxic activity assay (MTT), MDA-MB-231; format: cell-based; conditions: Homo sapiens; MDA-MB-231 (breast) cells, exposed for 96 hours; read-out: IC50, 50% inhibition of cell proliferation
Procedure: as §1

A375 (melanoma) = assay: In vitro cytotoxic activity assay (MTT), A375; format: cell-based; conditions: Homo sapiens, A-375; A375 (melanoma) cells, exposed for 96 hours; read-out: IC50, 50% inhibition of cell proliferation
Procedure: as §1

HL60 (leukemia) = assay: In vitro cytotoxic activity assay (MTT), HL60; format: cell-based; conditions: Homo sapiens, HL-60; HL60 (leukemia) cells, exposed for 96 hours; read-out: IC50, 50% inhibition of cell proliferation
Procedure: as §1

T1 sequence (P68400 whole entry): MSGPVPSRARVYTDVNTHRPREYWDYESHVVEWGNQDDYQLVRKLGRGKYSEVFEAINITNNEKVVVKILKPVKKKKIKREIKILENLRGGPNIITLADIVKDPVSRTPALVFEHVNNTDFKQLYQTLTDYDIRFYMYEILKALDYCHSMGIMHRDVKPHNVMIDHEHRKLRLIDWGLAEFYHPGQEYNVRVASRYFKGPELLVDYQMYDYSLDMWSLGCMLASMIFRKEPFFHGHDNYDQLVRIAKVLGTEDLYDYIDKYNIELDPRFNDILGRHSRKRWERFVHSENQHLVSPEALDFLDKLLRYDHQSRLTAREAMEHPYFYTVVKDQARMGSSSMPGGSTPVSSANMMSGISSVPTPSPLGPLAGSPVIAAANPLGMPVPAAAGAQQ
T1 sequence (P67870 whole entry partner): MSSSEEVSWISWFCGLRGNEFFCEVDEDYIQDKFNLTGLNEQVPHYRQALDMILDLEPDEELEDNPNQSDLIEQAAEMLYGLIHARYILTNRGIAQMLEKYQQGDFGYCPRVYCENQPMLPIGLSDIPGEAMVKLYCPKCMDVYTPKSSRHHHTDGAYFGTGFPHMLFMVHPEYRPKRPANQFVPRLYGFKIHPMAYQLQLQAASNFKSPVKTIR

With `O=C(O)c1cc2c([nH]c3cc(O)ccc32)c(Nc2cccc(Cl)c2)n1` [Compound 1, 1-((3-chlorophenyl)amino)-7-hydroxy-9H-pyrido[3,4-b]indole-3-carboxylic Acid] the IC50 [1] was 165 nM, the IC50 (H1299 (lung)) was 1800 nM and the IC50 (HCT116 (colon)) was 1600 nM. It also gave an IC50 (MIAPaCa-2 (pancreas)) of 3.3 µM, an IC50 (MCF7 (breast)) of 3.2 µM and an IC50 (PC3 (prostate)) of 1200 nM. It also gave an IC50 (MDA-MB-231 (breast)) of 2500 nM, an IC50 (A375 (melanoma)) of 5.7 µM and an IC50 (HL60 (leukemia)) of 4.1 µM.
